Reference: ChEMBL document CHEMBL5321254, “A method for tritiation of iboxamycin permits measurement of its ribosomal binding” (Bioorg Med Chem Lett, 2023)

Columns and labels:
Format in all cases: subcellular
[1] = biological target: Bacterial 70S ribosome (Bacteria) (UniProt P0A7V0+P60723+P0AG67+P0A7R5+P0A7R9+P0A7S3+P0A7S9+P0AG59+P0ADZ4+P0A7T3+P0AG63+P0A7T7+P0A7U3+P0A7U7+P68679+P0A7V3+P0A7V8+P0A7W1+P02358+P02359+P0A7W7+P0A7X3+P0A7J3+P0A7J7+P0AA10+P0ADY3+P02413+P0ADY7+P0AG44+P0C018+P0A7K6+P0A7L0+P0A7L3+P0AG48+P61175+P0ADZ0+P60624+P68919+P0A7L8+P0A7M2+P0A7M6+P60422+P0AG51+P0A7N1+P0A7M9+P0A7N4+P0A7N9+P0A7P5+P0A7Q1+Q2EEQ2+P0A7Q6+P60438+P62399+P0AG55+P0A7K2); test: Potency index, ratio of clindamycin Ki(app) to test compound Ki(app) for binding affinity to Escherichia coli ribosomes
Bacterial 70S ribosome [2] = test: Binding affinity to Escherichia coli ribosomes assessed as apparent inhibition constant by scintillation counter analysis; conditions: read-out: Ki(app)
Bacterial 70S ribosome [3] = test: Binding affinity to Escherichia coli ribosomes assessed as apparent dissociation constant by scintillation counter analysis; conditions: read-out: Kd(app)

| Ratio Ki(app) [1] | Ki (Bacterial 70S ribosome [2]) [µM] | Kd (Bacterial 70S ribosome [3]) [µM] | Compound |
| --- | --- | --- | --- |
| 70 | 0.041 | 0.034 | CS[C@H]1O[C@H]([C@H](NC(=O)[C@H]2NC[C@@H]3C[C@H](CC(C)C)CCO[C@H]32)[C@H](C)Cl)[C@H](O)[C@H](O)[C@H]1O |
| – | 2.7 | – | CCC[C@@H]1C[C@@H](C(=O)N[C@@H]([C@H]2O[C@H](SC)[C@H](O)[C@@H](O)[C@H]2O)[C@H](C)Cl)N(C)C1 [CLINDAMYCIN] |
